Where two headings read alike, the source gives them in different places.
Tests used:
ECD of CaSR = biological target: T1, ECD of CaSR (Homo sapiens, UniProt P41180); experiment: Ca2+ binding to the ECD by Trp fluorescence signal change; conditions: for Kd: read-out: Kd, 2-phase Hill equation
T1 construct: made in house; host or cells: HEK293S (GnTI-) suspension culture, secreted
T1 sequence (P41180 20-612): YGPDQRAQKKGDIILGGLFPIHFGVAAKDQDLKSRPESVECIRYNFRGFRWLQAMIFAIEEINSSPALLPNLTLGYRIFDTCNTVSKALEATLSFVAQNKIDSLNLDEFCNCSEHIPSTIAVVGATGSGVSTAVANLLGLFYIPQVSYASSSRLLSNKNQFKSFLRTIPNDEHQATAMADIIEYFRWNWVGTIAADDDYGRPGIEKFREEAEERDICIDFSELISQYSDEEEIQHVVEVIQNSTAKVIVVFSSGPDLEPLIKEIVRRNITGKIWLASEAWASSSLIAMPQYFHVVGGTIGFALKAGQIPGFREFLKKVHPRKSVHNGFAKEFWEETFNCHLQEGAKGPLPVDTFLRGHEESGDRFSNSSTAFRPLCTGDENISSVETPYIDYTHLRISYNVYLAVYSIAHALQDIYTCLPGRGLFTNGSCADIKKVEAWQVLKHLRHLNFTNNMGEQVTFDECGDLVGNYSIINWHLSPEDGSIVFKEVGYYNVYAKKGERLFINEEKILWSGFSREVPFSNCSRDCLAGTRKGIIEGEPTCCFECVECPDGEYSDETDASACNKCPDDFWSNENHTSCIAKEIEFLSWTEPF

CaSR [1] = biological target: T2, CaSR (Bos taurus, UniProt P35384); conditions: X. laevis oocytes; cited from earlier work
T2 construct: host or cells: X. laevis oocytes
T2 sequence (P35384 20-1085): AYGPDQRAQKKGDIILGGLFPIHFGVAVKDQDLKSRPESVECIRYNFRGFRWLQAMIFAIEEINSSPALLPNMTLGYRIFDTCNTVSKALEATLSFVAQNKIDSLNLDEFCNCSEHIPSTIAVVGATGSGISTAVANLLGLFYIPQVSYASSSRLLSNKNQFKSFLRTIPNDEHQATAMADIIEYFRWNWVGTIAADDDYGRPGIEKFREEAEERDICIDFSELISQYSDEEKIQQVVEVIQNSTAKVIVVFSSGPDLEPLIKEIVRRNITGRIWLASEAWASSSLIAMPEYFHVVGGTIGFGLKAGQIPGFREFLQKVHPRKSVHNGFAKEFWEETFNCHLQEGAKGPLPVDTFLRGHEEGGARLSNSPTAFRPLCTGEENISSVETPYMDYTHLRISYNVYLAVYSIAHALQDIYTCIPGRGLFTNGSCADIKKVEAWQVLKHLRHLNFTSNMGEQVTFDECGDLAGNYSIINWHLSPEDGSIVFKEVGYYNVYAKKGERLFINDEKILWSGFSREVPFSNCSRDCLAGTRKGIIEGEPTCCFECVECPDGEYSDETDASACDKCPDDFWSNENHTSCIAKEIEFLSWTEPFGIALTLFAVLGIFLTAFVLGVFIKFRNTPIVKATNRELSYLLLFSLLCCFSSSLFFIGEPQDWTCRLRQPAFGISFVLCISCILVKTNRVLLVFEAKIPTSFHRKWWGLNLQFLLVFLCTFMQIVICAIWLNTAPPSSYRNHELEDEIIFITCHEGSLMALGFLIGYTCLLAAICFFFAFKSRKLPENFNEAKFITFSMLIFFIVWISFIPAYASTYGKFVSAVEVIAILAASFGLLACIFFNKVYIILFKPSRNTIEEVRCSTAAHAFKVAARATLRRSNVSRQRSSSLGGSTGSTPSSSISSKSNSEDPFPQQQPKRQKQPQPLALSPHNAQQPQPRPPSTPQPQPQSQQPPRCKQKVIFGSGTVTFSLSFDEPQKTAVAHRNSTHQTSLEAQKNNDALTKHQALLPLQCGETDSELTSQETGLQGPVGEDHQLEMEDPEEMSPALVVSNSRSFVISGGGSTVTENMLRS

CaSR [2] = biological target: T3, CaSR (Homo sapiens, UniProt P41180); set-up: host or cells: HEK cells, transient; conditions: HEK cells, in the presence of 150 mM NaCl; read-out: EC50 for intracellular calcium responses; cited from earlier work
T3 sequence (P41180 20-1078): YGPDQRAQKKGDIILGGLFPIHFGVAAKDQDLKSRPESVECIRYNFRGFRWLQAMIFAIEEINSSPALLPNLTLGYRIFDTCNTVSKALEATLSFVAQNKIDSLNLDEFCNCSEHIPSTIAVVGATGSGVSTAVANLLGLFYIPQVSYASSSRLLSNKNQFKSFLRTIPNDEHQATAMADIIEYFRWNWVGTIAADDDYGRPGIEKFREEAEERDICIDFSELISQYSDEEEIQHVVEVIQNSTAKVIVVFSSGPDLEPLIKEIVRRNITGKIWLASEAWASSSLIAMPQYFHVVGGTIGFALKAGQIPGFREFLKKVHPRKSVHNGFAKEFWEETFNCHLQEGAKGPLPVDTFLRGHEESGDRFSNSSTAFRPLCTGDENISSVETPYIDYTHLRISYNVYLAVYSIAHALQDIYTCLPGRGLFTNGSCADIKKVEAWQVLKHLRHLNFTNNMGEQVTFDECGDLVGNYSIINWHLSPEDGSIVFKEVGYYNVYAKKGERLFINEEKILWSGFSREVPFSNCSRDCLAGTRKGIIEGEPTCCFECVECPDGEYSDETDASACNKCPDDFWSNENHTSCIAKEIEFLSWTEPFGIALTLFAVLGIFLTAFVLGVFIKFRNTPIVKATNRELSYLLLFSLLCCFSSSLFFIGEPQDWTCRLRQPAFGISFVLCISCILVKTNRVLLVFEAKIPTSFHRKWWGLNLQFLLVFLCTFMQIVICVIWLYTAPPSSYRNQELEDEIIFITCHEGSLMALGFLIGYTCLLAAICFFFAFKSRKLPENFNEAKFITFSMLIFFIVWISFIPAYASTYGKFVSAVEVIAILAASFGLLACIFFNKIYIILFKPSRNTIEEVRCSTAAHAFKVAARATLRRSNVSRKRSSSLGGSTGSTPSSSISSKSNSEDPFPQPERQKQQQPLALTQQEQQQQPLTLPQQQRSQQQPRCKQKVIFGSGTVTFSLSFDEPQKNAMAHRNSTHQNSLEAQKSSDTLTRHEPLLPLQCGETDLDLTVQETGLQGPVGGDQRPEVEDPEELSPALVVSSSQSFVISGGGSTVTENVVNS

CaSR [3] = biological target: T3, CaSR; experiment: [Ca^2+]i signaling (Fura-2) evoked by [Mg^2+]o/[Ca^2+]o in CaSR-expressing HEK293 cells (5001 cell population assay); format: cell-based; set-up: expressed in transfected cells
Procedure: Measurement of intracellular free Ca^2+ was assessed as described by Huang, et al^33. Briefly, wild type CaSR, or its mutants, were transiently transfected into HEK293 cells grown on coverslips and cultured for 48 h. The cells were subsequently loaded for 15 min using 2 μM Fura-2 AM in 2 mL physiological saline buffer (10 mM HEPES, 140 mM NaCl, 5 mM KCl, 1.0 mM MgCl2 and pH 7.4). The coverslips were mounted in a bath chamber on the stage of a Leica DM6000 fluorescence microscope. The cells were alternately illuminated with 340 or 380 nm light, and the fluorescence at an emission wavelength 510 nm was recorded in real time as the [Ca^2+]o and/or [Mg^2+]o was increased in a stepwise manner in the presence or absence of 0.25 mM TNCA in buffer (10 mM HEPES, 155 mM NaCl, 5 mM KCl, 2 mM NaH2PO4, 0.5 mM MgCl2 and pH 7.4). The ratio of the emitted fluorescence intensities resulting from excitation at both wavelengths was utilized as a surrogate for changes in [Ca^2+]i and was further plotted and analyzed as a function of [Ca^2+]o. All experiments were performed at room temperature. The signals from 20 to 100 single cells were recorded for each measurement. Oscillations were identified as three successive fluctuations in [Ca^2+]i after the initial peak. Determination of the Effect of TNCA on Mg^2+-Evoked [Ca^2+]i Signaling by Stimulation of CaSR in Cell Populations.
Changes in the intracellular Ca^2+ concentration [Ca^2+ ]i elicited by extracellular Mg^2+ ([Mg^2+]o) in a population of cells were measured by fluorimetry as described previously^33. A cell line stably expressing CaSR (designated the “5001 cell line”) was seeded on 13.5×20-mm coverslips and cultured in DMEM. After reaching 95% confluence, cells were washed three times using loading buffer (20 mM HEPES [pH 7.4], 125 mM NaCl, 5 mM KCl, 1.25 mM CaCl2, 1 mM MgCl2, 1 mM NaH2PO4, 1% glucose, and 1% BSA) and subsequently incubated with 4 μM Fura-2 and 4 μM pluronic F127 for 20 minutes at 37° C. to enable sufficient dye loading in the same buffer. After removing the excess Fura-2, coverslips with cells were diagonally positioned in a quartz cuvette filled with 3 ml of experimental buffer (125 mM NaCl, 5 mM KCl, 0.5 mM CaCl2, 0.5 mM MgCl2, 1% glucose, and 1% BSA). Measurements of Fura-2 fluorescence at 510 nm when excited at 340 or 380 nm were performed on a QM1 fluorescence spectrophotometer (PTI). The emission ratio of 340/380 was calculated and used to reflect the changes in [Ca^2+]i when different concentrations of [Mg^2+]o were applied to the cells.
To examine the co-activation of CaSR by TNCA and [Mg^2+]o or [Ca^2+]o, different concentrations of TNCA were placed in the experimental buffer with a fixed concentration of [Ca^2+]o and varying concentrations of [Mg^2+]o, or vice versa, as described in the results section. The effects of other ligands were analyzed by comparing the changes in [Ca^2+ ]i produced by [Mg^2+]o alone or by co-application of Mg^2+ with other ligands. The EC50 of [Mg^2+]o obtained during incubation with various concentrations of TNCA is compared with that observed in the presence of [Mg^2+]o alone. The EC50 changes were plotted as a function of TNCA concentration and the curve was fit to the Hill equation. The activation of CaSR by the TNCA, functioning as a co-agonist with [Mg^2+]o, is indicated by the increasingly leftward-shifted EC50 for [Mg^2+]o as the concentration of TNCA increases (FIG. 6).

CaSR [4] = biological target: T3, CaSR; experiment: ERK1/2 phosphorylation in 5001 cells stably expressing hCaSR; format: cell-based; set-up: expressed in transfected cells
Procedure: The 5001 cell line stably expressing hCaSR was starved in serum-free DMEM medium supplemented with 0.2% (w/v) BSA overnight, followed by washing 3-times with HBSS and a subsequent 10 minute HBSS incubation after 12 hours. To induce ERK1/2 phosphorylation, varying concentrations of [Mg^2+]o (0-50 mM) or [Ca^2+]o (0-30 mM) with or without 0.5 mM TNCA were added to cells and incubated for 10 minutes at 37° C. The cells were then lysed with Pierce RIPA buffer (ThermoFisher Scientific). Total protein concentration was measured using the BioRad assay. Lysates containing 100 μg of total protein were loaded onto 4-20% gradient SDS-PAGE gels for separation. After electrophoresis, proteins on the gel were transferred to nitrocellulose membranes and further analyzed by western blotting. Anti-phospho-p44/42 ERK (1:1000 dilution) and anti-p44/42 (1:2000) polyclonal antibodies were utilized as probes to detect the phosphorylated ERK1/2 and total ERK1/2 respectively. A chemiluminescent detection method (AP Conjugate Substrate Kit, Bio-Rad) was applied to detect phosphor-ERK1/2 and total-ERK1/2. The respective bands on western blots were evaluated by densitometry. The EC50 of [Mg^2+]o- or [Ca^2+]o-dependent responses were obtained by fitting the [Mg^2+]o or [Ca^2+]o concentration-response curves with the Hill equation (Eq.1).

Row | SMILES | Hill number, 2-phase Hill equation (ECD of CaSR; first phase) | Kd (ECD of CaSR; first phase) [mM] | Hill number, 2-phase Hill equation (ECD of CaSR; second phase) | Kd (ECD of CaSR; second phase) [mM] | EC50 (CaSR [1]) [mM] | EC50 (CaSR [2]) [mM] | co-agonism with [Mg^2+]o in activating [Ca^2+]i oscillations (CaSR [3]) | potency relative to Phe in reducing the EC50 for [Mg^2+]o or [Ca^2+]o activation of [Ca^2+]i signaling (CaSR [3]; WT and mutant CaSRs) | EC50 (CaSR [3]; determined indirectly through the EC50 change of [Mg^2+]o at different TNCA concentrations, 0.5 mM [Ca^2+]o, read-out: apparent EC50 of TNCA as co-agonist) [nM] | activation of the receptor by the exogenous compound alone (CaSR [3]; without metal agonist) | co-agonism with [Mg^2+]o in activating ERK1/2 phosphorylation (CaSR [4])
1 | [Ca+2] [Ca^2+, calcium] | 1.1 | 0.9 | 3.8 | 10 | 3 | 3 to 5 |  |  |  |  | 
2 | O=C(O)[C@@H]1Cc2c([nH]c3ccccc23)CN1 [TNCA, L-1,2,3,4-tetrahydronorharman-3-carboxylic acid] |  |  |  |  |  |  | strong co-agonist | greater than 1000 fold | ≥ 2000 | cannot activate the receptor | strong co-agonist

— patent publication US10639299B2, “Calcium sensing receptors, ligands, compositions, and methods of use” (Georgia State University Research Foundation, Inc., priority 2016, dated 2020)
